From patent publication US8808743B2, “Benzonatate compositions and methods of use” (priority 2010, dated 2014)

Test: Simulated gastrointestinal dissolution testing (FloVitro apparatus, USP simulated gastric and intestinal fluids)
Assay type: physicochemical
Conditions: 100 mg dose
Method: The dissolution test used procedures devised by DOW Chemical using their proprietary FloVitro™ dissolution apparatus described in U.S. Pat. No. 6,799,123B2 and in the publication titled “FloVitro™ Technology” published online at:
The system used two different media that were combined during the process. The fluid flow rates were:
Simulated gastric fluid=7.7 ml/min
Simulated intestinal fluid=13.1 ml/mi
Total flow through analyzer=20.8 ml/min
To Cell 1: USP simulated gastric fluid (no pepsin)
To Cell 2: USP simulated intestinal fluid (pH 6.8) (SIF)
The samples tested were: • a) 100 mg dose neat benzonatate • b) 220.48 mg of IRP69H resinate: 87.97 mg benzonatate dose • c) 225.15 mg of IRP64H resinate: 102.21 mg benzonatate dose a) 100 mg Neat Benzonatate

In the case of `CCCCNc1ccc(C(=O)OCCOCCOCCOCCOCCOCCOCCOCCOCCOC)cc1` [BENZ, benzonatate], the “Concentration of Homolog in Effluent Total” value (120 min) is reported as 18.66 mg/L, the “Concentration of Homolog in Effluent n = 3” value (120 min) is reported as 0.05 mg/L and the “Concentration of Homolog in Effluent n = 4” value (120 min) is reported as 0.20 mg/L. The “Concentration of Homolog in Effluent n = 5” value (120 min) was 0.53 mg/L, the “Concentration of Homolog in Effluent n = 6” value (120 min) was 1.18 mg/L and the “Concentration of Homolog in Effluent n = 7” value (120 min) was 1.99 mg/L. For the same molecule, the “Concentration of Homolog in Effluent n = 8” value (120 min) was 2.67 mg/L, the “Concentration of Homolog in Effluent n = 9” value (120 min) was 3.01 mg/L and the “Concentration of Homolog in Effluent n = 10” value (120 min) was 2.84 mg/L. For the same molecule, the “Concentration of Homolog in Effluent n = 11” value (120 min) was 2.44 mg/L, the “Concentration of Homolog in Effluent n = 12” value (120 min) was 1.73 mg/L and the “Concentration of Homolog in Effluent n = 13” value (120 min) was 1.13 mg/L. For the same molecule, the “Concentration of Homolog in Effluent n = 14” value (120 min) was 0.59 mg/L, the “Concentration of Homolog in Effluent n = 15” value (120 min) was 0.31 mg/L and the “Concentration of Homolog in Effluent n = 16” value (120 min) was 0.00 mg/L. For the same molecule, the “Concentration of Homolog in Effluent n = 17” value (120 min) was 0.00 mg/L, the “Cumul. (cumulative release in effluent)” value (120 min) was 81.10 mg and the “Concentration of Homolog in Effluent Total” value (180 min) was 9.68 mg/L. For the same molecule, the “Concentration of Homolog in Effluent n = 3” value (180 min) was 0.00 mg/L, the “Concentration of Homolog in Effluent n = 4” value (180 min) was 0.10 mg/L and the “Concentration of Homolog in Effluent n = 5” value (180 min) was 0.29 mg/L. The “Concentration of Homolog in Effluent n = 6” value (180 min) was 0.61 mg/L, the “Concentration of Homolog in Effluent n = 7” value (180 min) was 1.04 mg/L and the “Concentration of Homolog in Effluent n = 8” value (180 min) was 1.41 mg/L. The “Concentration of Homolog in Effluent n = 9” value (180 min) was 1.57 mg/L, the “Concentration of Homolog in Effluent n = 10” value (180 min) was 1.51 mg/L and the “Concentration of Homolog in Effluent n = 11” value (180 min) was 1.26 mg/L. For the same molecule, the “Concentration of Homolog in Effluent n = 12” value (180 min) was 0.90 mg/L, the “Concentration of Homolog in Effluent n = 13” value (180 min) was 0.57 mg/L and the “Concentration of Homolog in Effluent n = 14” value (180 min) was 0.30 mg/L. The “Concentration of Homolog in Effluent n = 15” value (180 min) was 0.11 mg/L, the “Concentration of Homolog in Effluent n = 16” value (180 min) was 0.00 mg/L and the “Concentration of Homolog in Effluent n = 17” value (180 min) was 0.00 mg/L. For the same molecule, the “Cumul. (cumulative release in effluent)” value (180 min) was 90.57 mg, the “Concentration of Homolog in Effluent Total” value (240 min) was 5.50 mg/L and the “Concentration of Homolog in Effluent n = 3” value (240 min) was 0.00 mg/L. For the same molecule, the “Concentration of Homolog in Effluent n = 4” value (240 min) was 0.06 mg/L, the “Concentration of Homolog in Effluent n = 5” value (240 min) was 0.16 mg/L and the “Concentration of Homolog in Effluent n = 6” value (240 min) was 0.36 mg/L. The “Concentration of Homolog in Effluent n = 7” value (240 min) was 0.60 mg/L, the “Concentration of Homolog in Effluent n = 8” value (240 min) was 0.78 mg/L and the “Concentration of Homolog in Effluent n = 9” value (240 min) was 0.89 mg/L. For the same molecule, the “Concentration of Homolog in Effluent n = 10” value (240 min) was 0.84 mg/L, the “Concentration of Homolog in Effluent n = 11” value (240 min) was 0.70 mg/L and the “Concentration of Homolog in Effluent n = 12” value (240 min) was 0.49 mg/L. The “Concentration of Homolog in Effluent n = 13” value (240 min) was 0.36 mg/L, the “Concentration of Homolog in Effluent n = 14” value (240 min) was 0.17 mg/L and the “Concentration of Homolog in Effluent n = 15” value (240 min) was 0.09 mg/L. The “Concentration of Homolog in Effluent n = 16” value (240 min) was 0.00 mg/L, the “Concentration of Homolog in Effluent n = 17” value (240 min) was 0.00 mg/L and the “Cumul. (cumulative release in effluent)” value (240 min) was 95.70 mg. For the same molecule, the “Concentration of Homolog in Effluent Total” value (300 min) was 2.73 mg/L, the “Concentration of Homolog in Effluent n = 3” value (300 min) was 0.00 mg/L and the “Concentration of Homolog in Effluent n = 4” value (300 min) was 0.00 mg/L. For the same molecule, the “Concentration of Homolog in Effluent n = 5” value (300 min) was 0.09 mg/L, the “Concentration of Homolog in Effluent n = 6” value (300 min) was 0.18 mg/L and the “Concentration of Homolog in Effluent n = 7” value (300 min) was 0.30 mg/L. For the same molecule, the “Concentration of Homolog in Effluent n = 8” value (300 min) was 0.41 mg/L, the “Concentration of Homolog in Effluent n = 9” value (300 min) was 0.45 mg/L and the “Concentration of Homolog in Effluent n = 10” value (300 min) was 0.42 mg/L. The “Concentration of Homolog in Effluent n = 11” value (300 min) was 0.39 mg/L, the “Concentration of Homolog in Effluent n = 12” value (300 min) was 0.25 mg/L and the “Concentration of Homolog in Effluent n = 13” value (300 min) was 0.15 mg/L. The “Concentration of Homolog in Effluent n = 14” value (300 min) was 0.09 mg/L, the “Concentration of Homolog in Effluent n = 15” value (300 min) was 0.00 mg/L and the “Concentration of Homolog in Effluent n = 16” value (300 min) was 0.00 mg/L. For the same molecule, the “Concentration of Homolog in Effluent n = 17” value (300 min) was 0.00 mg/L, the “Cumul. (cumulative release in effluent)” value (300 min) was 98.15 mg and the “Concentration of Homolog in Effluent Total” value (360 min) was 1.20 mg/L. For the same molecule, the “Concentration of Homolog in Effluent n = 3” value (360 min) was 0.00 mg/L, the “Concentration of Homolog in Effluent n = 4” value (360 min) was 0.00 mg/L and the “Concentration of Homolog in Effluent n = 5” value (360 min) was 0.05 mg/L. The “Concentration of Homolog in Effluent n = 6” value (360 min) was 0.11 mg/L, the “Concentration of Homolog in Effluent n = 7” value (360 min) was 0.15 mg/L and the “Concentration of Homolog in Effluent n = 8” value (360 min) was 0.19 mg/L. The “Concentration of Homolog in Effluent n = 9” value (360 min) was 0.23 mg/L, the “Concentration of Homolog in Effluent n = 10” value (360 min) was 0.20 mg/L and the “Concentration of Homolog in Effluent n = 11” value (360 min) was 0.17 mg/L. For the same molecule, the “Concentration of Homolog in Effluent n = 12” value (360 min) was 0.10 mg/L, the “Concentration of Homolog in Effluent n = 13” value (360 min) was 0.00 mg/L and the “Concentration of Homolog in Effluent n = 14” value (360 min) was 0.00 mg/L. For the same molecule, the “Concentration of Homolog in Effluent n = 15” value (360 min) was 0.00 mg/L, the “Concentration of Homolog in Effluent n = 16” value (360 min) was 0.00 mg/L and the “Concentration of Homolog in Effluent n = 17” value (360 min) was 0.00 mg/L. The “Cumul. (cumulative release in effluent)” value (360 min) was 99.32 mg, the “Concentration of Homolog in Effluent Total” value (420 min) was 0.67 mg/L and the “Concentration of Homolog in Effluent n = 3” value (420 min) was 0.00 mg/L. For the same molecule, the “Concentration of Homolog in Effluent n = 4” value (420 min) was 0.00 mg/L, the “Concentration of Homolog in Effluent n = 5” value (420 min) was 0.00 mg/L and the “Concentration of Homolog in Effluent n = 6” value (420 min) was 0.06 mg/L. For the same molecule, the “Concentration of Homolog in Effluent n = 7” value (420 min) was 0.08 mg/L, the “Concentration of Homolog in Effluent n = 8” value (420 min) was 0.11 mg/L and the “Concentration of Homolog in Effluent n = 9” value (420 min) was 0.12 mg/L. The “Concentration of Homolog in Effluent n = 10” value (420 min) was 0.11 mg/L, the “Concentration of Homolog in Effluent n = 11” value (420 min) was 0.09 mg/L and the “Concentration of Homolog in Effluent n = 12” value (420 min) was 0.10 mg/L. For the same molecule, the “Concentration of Homolog in Effluent n = 13” value (420 min) was 0.00 mg/L, the “Concentration of Homolog in Effluent n = 14” value (420 min) was 0.00 mg/L and the “Concentration of Homolog in Effluent n = 15” value (420 min) was 0.00 mg/L. For the same molecule, the “Concentration of Homolog in Effluent n = 16” value (420 min) was 0.00 mg/L, the “Concentration of Homolog in Effluent n = 17” value (420 min) was 0.00 mg/L and the “Cumul. (cumulative release in effluent)” value (420 min) was 99.74 mg. For the same molecule, the “Concentration of Homolog in Effluent Total” value (480 min) was 0.00 mg/L, the “Concentration of Homolog in Effluent n = 3” value (480 min) was 0.00 mg/L and the “Concentration of Homolog in Effluent n = 4” value (480 min) was 0.00 mg/L. For the same molecule, the “Concentration of Homolog in Effluent n = 5” value (480 min) was 0.00 mg/L, the “Concentration of Homolog in Effluent n = 6” value (480 min) was 0.00 mg/L and the “Concentration of Homolog in Effluent n = 7” value (480 min) was 0.00 mg/L. For the same molecule, the “Concentration of Homolog in Effluent n = 8” value (480 min) was 0.00 mg/L, the “Concentration of Homolog in Effluent n = 9” value (480 min) was 0.00 mg/L and the “Concentration of Homolog in Effluent n = 10” value (480 min) was 0.00 mg/L. For the same molecule, the “Concentration of Homolog in Effluent n = 11” value (480 min) was 0.00 mg/L, the “Concentration of Homolog in Effluent n = 12” value (480 min) was 0.00 mg/L and the “Concentration of Homolog in Effluent n = 13” value (480 min) was 0.00 mg/L. For the same molecule, the “Concentration of Homolog in Effluent n = 14” value (480 min) was 0.00 mg/L, the “Concentration of Homolog in Effluent n = 15” value (480 min) was 0.00 mg/L and the “Concentration of Homolog in Effluent n = 16” value (480 min) was 0.00 mg/L. The “Concentration of Homolog in Effluent n = 17” value (480 min) was 0.00 mg/L.
